Measurements reported in patent US20250325576A1, “COMPOSITIONS FOR USE IN CARTILAGE BREAKDOWN” (Société des Produits Nestlé S.A., priority 2013, published 2025).

Experiments:
Assay type in all cases: cell-based
Conditions in all cases: 1.5 μM each, 3 days
ADAMTS-5 = ADAMTS-5 mRNA expression relative to GAPDH, bovine primary chondrocytes in alginate beads (real-time PCR)
Procedure: (§1) The skin was removed from the foot. The articulation was opened transversally. Intra articular ligaments were transected. The opened articulation was washed with phosphate buffered saline. With a scalpel blade, full thickness slices of cartilage were dissected out and collected in DMEM high glucose with 10 mM hepes and 1% Penicillin-Streptomycin. Slices of cartilage were washed in DMEM high glucose with 10 mM hepes and 1% Penicillin-Streptomycin.
(§2) Cartilage was then digested successively by 0.5 mg/ml of hyluronidase during 30 minutes, 1.0 mg/ml of pronase E during 60 minutes and 1.0 mg/ml of collagenase overnight under slow agitation.
(§3) After the enzymatic incubation, the cell suspension was filtered through a 70 μm cell strainer to separate cell cluster and remove tissue debris. The cell suspension was centrifuged to pellet the cells. […]
(§4) Total RNA was isolated from pool of 40 beads and isolated using RNeasy kit from Qiagen. cDNA was obtained by reverse transcription of RNA with the Primescript 1st strand cDNA Synthesis kit from Takara. mRNA expression of ADAMTS-5, COX-2, MMP-13 and GAPDH were quantified in real-time PCR (SYBR Green)
(§5) Data were expressed as fold change in gene expression compared to negative control (cells cultured in complete medium).
(§6) Data were expressed as median±S.E.Median (2 experiments of 3 replicates each). […]

MMP-13 = MMP-13 mRNA expression relative to GAPDH, bovine primary chondrocytes in alginate beads (real-time PCR)
Procedure: as §1, §2, §3, §4, §5, §6

COX-2 = COX-2 mRNA expression relative to GAPDH, bovine primary chondrocytes in alginate beads (real-time PCR)
Procedure: as §1, §2, §3, §4, §5, §6

[1] = disease conditions (IL1a 10 ng/ml), vs IL1a
[2] = normal conditions (absence of IL1a), vs CTL-

In the case of `O=c1c(O)c(-c2ccc(O)c(O)c2)oc2cc(O)cc(O)c12` [Quercetin, quercetin], the “ADAMTS-5 mRNA expression relative to GAPDH” value (ADAMTS-5; [1]) is reported as “decrease expression of ADAMTS-5”, the “ADAMTS-5 mRNA expression relative to GAPDH” value (ADAMTS-5; [2]) is reported as “decrease expression of ADAMTS-5” and the “MMP-13 mRNA expression relative to GAPDH” value (MMP-13; [1]) is reported as “decrease expression of MMP-13”. The “MMP-13 mRNA expression relative to GAPDH” value (MMP-13; [2]) was “decrease expression of MMP-13”, the “COX-2 mRNA expression relative to GAPDH” value (COX-2; [1]) was “decrease expression of COX-2” and the “COX-2 mRNA expression relative to GAPDH” value (COX-2; [2]) was “reduce expression of COX-2”.
